Reference: US11154479B1, “Methods of removing color from color-treated hair” (L'Oreal, priority 2020, dated 2021)
Read-outs that look alike come from different tables or passages of the source.

Tests used:
[1] = Removal of Basic Red 51 from dyed hair swatches by organic salt solutions (ΔE); conditions: 10% organic salt in water; Basic Red 51 dyed hair; soaked 30 minutes at 40° C.; water control 5.3
Procedure: (§1) Unless otherwise indicated, hair swatches were all treated using the same protocol. Specifically, 2 g dyed hair swatches are soaked in 80 g treatment solution in water for 30 minutes at 40° C., then the treated hair swatches are then shampooed/washed once (rinsing step) and blow-dried for evaluation.
(§2) Unless otherwise indicated, color removal performance is measured using CIE L* a* b* coordinates. ΔE is used to describe the color difference and is defined by the following equation: ΔE*ab=√{square root over ((L*2−L*1)^2+(a*2−a*1)^2+(b*2−b*1)^2)} where, L1*, a1; b1 are measured on freshly dyed hair L2*, a2, b2 are measured on the dyed hair treated by color remover systems. The higher ΔE values, the more efficient the color removal.
Hair swatches dyed with Basic Red 51 were treated with BMIM octylsulfate and TBuMA Cl, each at 10% concentration using the protocol described above. Basic Red 51 contains a quaternary moiety and has the structure below.

[2] = Removal of HC Blue 15 from dyed hair swatches by organic salt solutions (ΔE, CIE L*a*b*); conditions: HC Blue 15 dyed hair; for ΔE: soaked 30 minutes at 40° C., shampooed once
Procedure: as §1, §2
Hair swatches dyed with HC Blue 15 were treated with the organic salts at varying concentrations using the protocol described above.

[3] = 10% organic salt in water; hydroxyanthraquinoneaminopropyl methyl morpholinium methosulfate dyed hair; 30 minutes at 40° C.; water control 2.9
[4] = Octanol/water partition coefficient (Log Pow) of direct dyes; type: physicochemical; conditions: octanol/water partition coefficient of the dye
Text: Pow is the octanol/water partition coefficient, which can be defined as the ratio of the concentration of a solute, such as the direct dye in the present disclosure, in a water-saturated octanolic phase to its concentration in an octanol-saturated aqueous phase. The octanol/water partition coefficient is typically expressed in Logarithmic form.
There are several existing experimental methods by the Organisation for Economic Co-operation and Development (OECD) and Quantitative Structure-Property Relationship (QSPR) models available for Log Pow measurement or prediction. The experimental methods include: the ‘slow-stirring’ method (OECD Test No. 123), the high-performance liquid chromatography (HPLC) method (OECD Test No. 117), and shake flask methods (referred to in OECD Test No. 107).
Thus, partition coefficient of a dye may be calculated as follows: Log Pow=Log [(dye concentration in octanol)/(dye concentration in water)].
The Log Pow value of a direct dye can be positive, negative or neutral. The Log Pow values for some dyes follows in the below table.

| Compound | ΔE [1] | ΔE ([2]; 25% organic salt in water) | ΔE [3] | ΔE ([2]; 1% organic salt in water) | ΔE ([2]; 5% organic salt in water) | ΔE ([2]; 10% organic salt in water) | Concentration of organic salt from which the ΔE value increased significantly [2] | Log Pow [4] |
| --- | --- | --- | --- | --- | --- | --- | --- | --- |
| CCCC[N+](C)(CCCC)CCCC.[Cl-] [TBuMA Cl, tributylmethyl ammonium chloride] | 23.1 | 32.8 |  |  |  |  |  |  |
| butyl-3-methylimidazolium octyl sulfate [BMIM octyl sulfate] | 22.2 |  | 39.1 | 1.3 | 18.4 | 32.2 | about 5% |  |
| COS(=O)(=O)[O-].C[N+]1(CCCNc2ccc(O)c3c2C(=O)c2ccccc2C3=O)CCOCC1 [Hydroxyanthraquinoneaminopropyl methyl morpholinium methosulfate] |  |  |  |  |  |  |  | around 2.89 |
